These results are taken from patent US20250374924A1, “ACTIVE MOLECULES IN THE SECRETOME OF PSEUDOMONAS PROTEGENS PBL3” (Board of Regents of the University of Nebraska, priority 2024, published 2025).

Entries after “also recorded” stand apart in the source; their conditions may differ.

The subject of experiment [1] is Burkholderia glumae. Kind of experiment: Antimicrobial assay in vitro: growth of B. glumae in KB broth (OD600 after 18 hours). As to conditions: for growth of B. glumae (in words): concentrations ranging from 10 μg/mL to 1000 μg/mL; for minimum inhibitory concentration needed for reduction of B. glumae growth in vitro: concentrations tested 1000, 100, 10 μg/mL.
Method: A single colony of P. protegens PBL3 was grown in 1×M9 minimal media (Sigma Aldrich, St. Louis, MO) supplemented with filter-sterilized 56 mM Myo-inositol, 2 mM MgSO4·7H2O, and 0.2 mM CaCl2). The culture was incubated at 25° C. with constant agitation (210 rpm) for 60 hours until reaching an optical density at 600 nm (OD600) of 0.5. Bacterial culture was centrifuged at 10,000 rpm for 10 minutes. The bacterial pellet was discarded and the supernatant, containing the secreted fraction (secretome) was transferred to a new tube and filter-sterilized using a 0.22 μm filter (Fisher Scientific, Ireland) to eliminate any residual bacterial suspension.
Orfamide A, orfamide B, pyrrolnitrin, and pyoluteorin (Cayman Chemical Company, Ann Arbor, MI), and pyochelin (Santa Cruz Biotechnology, Dallas, TX), were diluted in 5% dimethyl sulfoxide (DMSO) at 1000 μg/mL and further diluted to 100 μg/mL and 10 μg/mL. Similarly, pyoverdine (Sigma-Aldrich, Saint Louis, MO) was diluted in water, whereas 2,4-DAPG (ThermoFisher Scientific, Poland) and fengycin (Sigma-Aldrich, Saint Louis, MO) were diluted in 5% ethanol at 1000 μg/mL and further diluted to 100 μg/mL and 10 μg/mL.
Burkholderia glumae grown on KB was scraped from the agar and resuspended in sterile water to a final OD600 of 0.2. One hundred microliters of B. glumae was added to 200 μL of KB broth to make a master mix. The master mix was supplemented with either water, 5% DMSO, or 5% ethanol, used as control. Alternatively, master mix was supplemented with either P. protegens PBL3 secretome or different compounds (orfamide A, orfamide B, fengycin, pyrrolnitrin, pyochelin, pyoverdine, 2,4-DAPG, or pyoluteorin), each at three concentrations of 1000 μg/mL, 100 μg/mL, and 10 μg/mL, or combination of compounds. Two compound combinations were chosen, the first combination consisted of 2,4-DAPG and pyoluteorin at final concentrations of 100 μg/mL and 10 μg/mL, respectively. The second combination consisted of 2,4-DAPG and pyoluteorin, each at concentration of 10 μg/mL. […] The growth of B. glumae was evaluated by measuring the OD600 using a spectrophotometer (Genesys 140, Thermoscientific, Madison, WI, USA). Each experiment was replicated three times.
Experiment [2] deals with rifampicin-resistant strain of B. glumae. As to the kind of experiment: Antimicrobial assay in planta: rice panicles pre-treated with compound, then spray-inoculated with B. glumae (BPB symptoms, bacterial populations). Type of experiment: in vivo, Burkholderia glumae. As to conditions: 3 dpi; for reduction of B. glumae populations in rice panicles: pre-treated with 500 μg/mL, vs water pre-treated inoculated panicles, FIG. 4B; for BPB symptoms in rice panicles (in words): rice Kitaake panicles pre-treated with 500 μg/mL, water pre-treated, inoculated panicles exhibited the highest levels of BPB symptoms, FIG. 4A.

The mark [3] stands for this setting: at a concentration of 1000 μg/mL.
Setting [4] is: compound at 1000 μg/mL, 18 hours, FIG. 2.
[5] abbreviates: other concentrations than 1000 μg/mL (100 μg/mL, 10 μg/mL), FIG. 2.
The mark [6] stands for this setting: at the three concentrations 10 μg/mL, 100 μg/mL, 1000 μg/mL.
Setting [7] is: compound at 100 μg/mL, 18 hours, FIG. 2.

Consider Orfamide A, for which the “growth of B. glumae (in words)” value in experiment [1] (FIG. 2) is recorded as “did not reduce the growth of B. glumae”.

With orfamide B, the “growth of B. glumae (in words)” value in experiment [1] (FIG. 2) is listed as “did not reduce the growth of B. glumae”.

For `O=[N+]([O-])c1c(Cl)cccc1-c1c[nH]cc1Cl` [pyrrolnitrin], the figures for the “effect on growth of B. glumae (in words)” value in experiment [1] (setting [3]) and in experiment [1] (setting [5]) were “inhibits B. glumae” and “did not have any effect”, respectively. Also, in experiment [1] (setting [4]), the “reduction of growth of B. glumae” value is reported as 25%. In experiment [1], the “minimum inhibitory concentration needed for reduction of B. glumae growth in vitro” value was 1000 µg/mL.

Turning to pyoverdine, the “reduction of B. glumae populations in rice panicles” value (“reduction of B. glumae populations” for short) in experiment [2] is “No changes in B. glumae populations”. The “effect on growth of B. glumae (in words)” value in experiment [1] (setting [6]) is listed as “inhibits B. glumae”. Moreover, the “reduction of growth of B. glumae” value in experiment [1] (setting [7]) and in experiment [1] (setting [4]) was about 80% each time. Further, the “minimum inhibitory concentration needed for reduction of B. glumae growth in vitro” value in experiment [1] worked out at 100 µg/mL.

`CC(=O)c1c(O)cc(O)c(C(C)=O)c1O` [2,4-DAPG, 2,4-diacetylphloroglucinol]: in experiment [2], the “reduction of B. glumae populations” value was 1.17 logs and the “BPB symptoms in rice panicles (in words)” value was “showed reduction of symptoms”. For the same molecule, in experiment [1] (2,4-DAPG at 100 μg/mL alone or with pyoluteorin at 10 μg/mL, 18 hours, FIG. 7), the “reduction in B. glumae growth” value is given as 45%. Also, the “effect on growth of B. glumae (in words)” value in experiment [1] (setting [6]) is on record as “inhibits B. glumae; also recorded: significantly reduced the growth of B. glumae”. The “reduction of growth of B. glumae” value in experiment [1] (setting [4]) is reported as 93%. Also, the “minimum inhibitory concentration needed for reduction of B. glumae growth in vitro” value in experiment [1] turned out to be 100 µg/mL.

On to fengycin, for which, in experiment [1] (FIG. 2), the “growth of B. glumae (in words)” value is on record as “did not reduce the growth of B. glumae”.

As for `CN1[C@@H]([C@H]2CSC(c3ccccc3O)=N2)SC[C@H]1C(=O)O` [pyochelin], in experiment [2], the “reduction of B. glumae populations” value was “No changes in B. glumae populations” and the “BPB symptoms in rice panicles (in words)” value is “showed reduction of symptoms”. The “effect on growth of B. glumae (in words)” value in experiment [1] (setting [3]) is “inhibits B. glumae”. Moreover, the “reduction of growth of B. glumae” value in experiment [1] (setting [4]) came out at 40%. The “minimum inhibitory concentration needed for reduction of B. glumae growth in vitro” value in experiment [1] is 1000 µg/mL. Moreover, the “effect on growth of B. glumae (in words)” value in experiment [1] (setting [5]) is recorded as “did not have any effect”.

In the case of `O=C(c1cc(Cl)c(Cl)[nH]1)c1c(O)cccc1O` [pyoluteorin], the “reduction of B. glumae populations” value in experiment [2] is given as 1.5 logs. Besides, the “BPB symptoms in rice panicles (in words)” value in experiment [2] is given as “showed reduction of symptoms”. In addition, the “effect on growth of B. glumae (in words)” value in experiment [1] (setting [6]) is “inhibits B. glumae; also recorded: significantly reduced the growth of B. glumae”. The “reduction of growth of B. glumae” value in experiment [1] (setting [7]) and in experiment [1] (setting [4]) was 97% in each case. In experiment [1], the “minimum inhibitory concentration needed for reduction of B. glumae growth in vitro” value worked out at 100 µg/mL.
